Experimental data reported in publication PMC6911004, “Fragment-based screening identifies molecules targeting the substrate-binding ankyrin repeat domains of tankyrase” (Scientific Reports, 2019).

Tests used:
TNKS2 ARC4 = target: T1, TNKS2 ARC4 (Homo sapiens, UniProt Q9H2K2); assay: T2 relaxation-edited ligand-observed NMR assay; type: binding; conditions: for T2 relaxation-edited: competition with 3BP2 TBM peptide: 3BP2 16-mer peptide 100 μM
T1 construct: The cell was filled with TNKS2 ARC4 (488–649); His6-GST; made in house; host or cells: E. coli
T1 sequence (Q9H2K2 488-649): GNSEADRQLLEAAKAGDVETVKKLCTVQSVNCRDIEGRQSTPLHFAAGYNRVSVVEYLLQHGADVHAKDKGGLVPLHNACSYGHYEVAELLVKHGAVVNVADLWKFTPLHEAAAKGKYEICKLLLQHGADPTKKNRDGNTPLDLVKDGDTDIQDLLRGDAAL
Protocol: We next sought close structural analogues of hit fragments 3 and 5 to gain early insights into structure-activity relationships (SAR) and binding modes of hit fragments. We initially tested the analogues using both relaxation-edited and waterLOGSY NMR assays against TNKS2 ARC4 (Table 1), followed by protein-observed NMR if binding was detected in both ligand-observed NMR experiments.
Fragments were dispensed in duplicate into a 384-well plate (250 nL, 100 mM stock in DMSO). Wells were backfilled with DMSO (2.25 μL). Tankyrase ARC protein (47.5 μL in 25 mM HEPES, pH 7.5, 100 mM NaCl, 2 mM TCEP, 10% D2O; 20 μM final protein concentration in the assay) was added to the ‘protein’ samples; buffer only (47.5 μL) was added to the ‘compound-only’ samples. Solutions were transferred to 1.7 mm NMR tubes using a Gilson liquid handling system. ^1H NMR spectra were recorded, with the DMSO and water signals dampened. A relaxation spin filter was applied at 400 ms[65]. Data were processed using Bruker Topspin 3.14. Lines were broadened with LB = 3.0, and the baseline was corrected between 6.0–10.0 ppm. The average integral for all peaks between 6.0–10.0 ppm was calculated, and the difference between compound-only and compound-plus-protein samples was compared. A reduction in signal integrals of ≥15% was classified as a hit. For competitive experiments, 3BP2 16-mer peptide (100 μM) was added, and the spectra were recorded and processed as above. The variability in signal reduction in the relaxation-edited experiment was previously determined as approximately ± 10% (Liu et al., unpublished observations).

TNKS2 ARC5 = target: T2, TNKS2 ARC5 (Homo sapiens, UniProt Q9H2K2); assay: Differential scanning fluorimetry (DSF, thermal shift); type: binding; conditions: fragment 500 μM, 5% DMSO
T2 construct: followed by TNKS2 ARC5 (1 μL, 100 μM stock); His6-GST; made in house; host or cells: E. coli
T2 sequence (Q9H2K2 641-800): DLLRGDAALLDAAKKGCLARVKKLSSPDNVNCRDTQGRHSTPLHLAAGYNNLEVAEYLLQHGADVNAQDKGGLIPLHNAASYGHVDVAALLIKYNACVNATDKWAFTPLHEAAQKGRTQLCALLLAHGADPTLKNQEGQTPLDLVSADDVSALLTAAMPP
Protocol: Therefore, we chose TNKS2 ARC5 for screening by DSF, anticipating the largest signal window for measuring changes in Tm upon fragment binding.
We screened 1869 compounds in duplicate at a concentration of 500 μM, which we considered a reasonable compromise between having a sufficiently high concentration to identify weak binders while minimising the likelihood of false positives through fragment precipitation/aggregation and non-specific binding. The final DMSO concentration was 5%. We calculated melting temperatures using both the inflection point and the maximum peak of first derivative data methods. Both methods generally agreed, unless the melt curve was biphasic or misshapen, with slightly lower variability for the […] Tm determination method (see Materials and Methods for experimental and analysis details).
We determined the melting temperature for the unbound ARC (Tm, 0) from the mean of 12 reference melting curves per plate, with 5% DMSO only. We calculated the change in melting temperature (ΔTm) by subtracting the mean Tm, 0 from Tm, compound. We tested compounds in duplicate, defining fragments as hits if they conferred a ΔTm outside two standard deviations (2σ) from the mean, in one or both replicates. To check for consistency between plates, we ran triplicate peptide controls; however, we excluded peptide ΔTm values from the calculation of the mean ΔTm to avoid skewing the results. We observed mean ΔTm values (IP/1st derivative methods) of −0.127/−0.331 °C and σ as 0.997/1.19 °C. A hit cut-off of 2σ gave absolute shifts of +1.87/+2.05 °C for compounds that stabilised and −2.13/−2.71 °C for compounds that destabilised the ARC (Fig. 2B).
For the screen, a C1000 thermal cycler (Bio-Rad) was used to record melt curves. SYPRO Orange was purchased as a 5000 × stock in DMSO from Sigma Aldrich. The ICR fragment library was available as 100 mM stocks in DMSO, and dispensed (25 nL) using an ECHO acoustic liquid handling system into white 384-well PCR plates (Framestar, 4titude). Wells were backfilled with DMSO (225 nL). Buffer (2.75 μL, 25 mM HEPES-NaOH pH 7.5, 100 mM NaCl, 2 mM TCEP) was added, followed by TNKS2 ARC5 (1 μL, 100 μM stock) and then SYPRO orange dye (1 μL, 25×). The plate was centrifuged after the addition of each reagent (1 min, 1000 × g). Final assay concentrations were as follows: TNKS2 ARC5 (20 μM); fragment (500 μM); SYPRO Orange dye (5×); DMSO (5% v/v) in a total volume of 5 μL. Peptide control wells (3BP2 TBM 16-mer, 200 μM, sequence LPHLQRSPPDGQSFRSW with C-terminal tryptophan added for photometric concentration measurements, the N-terminus acetylated and the C-terminus amide-capped) were plated in triplicate, and there were 12 blank wells per plate, with DMSO only (250 nL, 5% v/v). Melt curves were recorded from 20–95 °C, with the temperature ramped by 0.5 °C every 15 s. Data were analysed using Vortex (Dotmatics) software and melting temperatures calculated from both the inflection point and the maximum peak of 1st-derivative data. Data points were excluded if the melt curve was poor, i.e., if there was no fluorescence signal above baseline, high fluorescence intensity throughout, or if the melt curve was shallow (<1000 rfu difference between baseline and peak maximum). The unbound melting temperature was determined from the mean of 12 reference melting curves, with 5% DMSO only. The change in melting temperature (ΔTm) was calculated by subtracting the mean Tm, 0 from Tm, compound. Compounds were tested in duplicate, and fragments were defined as hits if they gave a ΔTm outwith 2 σ from the mean in one or both replicates.
For the experiment shown in Fig. 2A, ARC and 3BP2 TBM peptide concentrations were 20 and 200 μM, respectively, in 50 mM HEPES-NaOH pH 7.5, 100 mM NaCl, 2 mM TCEP and a total volume of 25 μL. SYPRO Orange was added at 5×. Data were recorded from 4–95 °C, with the temperature ramped by 0.5 °C every 15 s, using a CFX384 thermal cycler (Bio-Rad). […]

Row | binding to TNKS2 ARC4 by ligand-observed NMR, in words (TNKS2 ARC4; DSF hit validation) | ΔTm (°C) (TNKS2 ARC5; method of Tm analysis not stated) | T2 relaxation-edited: competition with 3BP2 TBM peptide (TNKS2 ARC4) | ΔTm calculated by the inflection point method (TNKS2 ARC5; screen, biphasic melt curves) | ΔTm calculated by the 1st derivative method (TNKS2 ARC5; screen, second peak used to calculate Tm) | TNKS2 ARC4 binding of analogues, SAR summary in words (TNKS2 ARC4; relaxation-edited and waterLOGSY NMR) | SMILES
1 | bound | 2.5 °C |  |  |  |  | O=C(NCc1ccco1)c1ccc(F)cc1 [compound 3]
2 |  |  | competitive | 1.6 °C | 8.1 °C |  | O=C(NCc1ccc(F)cc1)c1ccc2nccnc2c1 [compound 5]
3 |  |  | competitive |  |  | preserved binding | O=C(NCc1ccco1)c1ccc2nccnc2c1 [compound 9]
